Key:
[1] = tested on: formalin-induced inflammatory pain; assay: Formalin-induced spontaneous inflammatory pain (licking/flinching duration); assay type: in vivo, mice
Procedure: Animals and pain models. Adult CD1 mice (male, 25-32 g) were used for most experiments. Knockout mice were used lacking TNFR1/II (Tnfrsf1a/1b^−/−) and TRPV1 (Trpv1^−/−) and C57BL/6 wild-type control mice, all from Jackson, for some experiments. All animal procedures performed in this study were approved by the Harvard Medical Area Standing Committee on Animals. 20 μl of diluted formalin (5%), carrageenan (CRG, 1%), or complete Freund's adjuvant (CFA) were injected into the plantar surface of a hindpaw to produce acute, persistent, or chronic inflammatory pain, respectively. Postoperative pain was also produced through hindpaw incision^36 and neuropathic pain by ligation of the spinal nerve^37.
Reagents and administration. RvE1 and RvD1 were suspended in 1% or 10% ethanol as vehicle for investigating acute (<1 h) and persistent (1-6 h) effects of resolvins on inflammatory pain. The reagents (10 μl) were delivered to the cerebral spinal fluid via intrathecal injection made by a spinal cord puncture between the L5 and L6 level with a 30G needle^38.
Behavioral analysis. Mice were habituated in the testing environment for two days and performed behavioral testing in a blinded manner. Formalin-evoked spontaneous inflammatory pain was assessed by measuring duration (seconds) animals spent on licking/flinching the affected paws every 5 min for 45 min. Capsaicin-induced spontaneous pain was aslo assessed for 10 min. For testing mechanical sensitivity, mice were put in boxes on an elevated metal mesh floor and stimulated hindpaw with a series of von Frey hairs with logarithmically incrementing stiffness (0.02-2.56 grams, Stoelting), presented perpendicular to the plantar surface. It was determined the 50% paw withdrawal threshold using Dixon's up-down method^40. For testing heat sensitivity, mice were placed in plastic boxes and tested heat sensitivity using Hargreaves radiant heat apparatus (IITC Life Science Inc.). The basal paw withdrawal latency was adjusted to 9-12 seconds and set a cut-off of 20 seconds to prevent tissue damage. The percent maximal possible antinociceptive effect (% M.P.E) was calculated using the equation % M.P.E.=[(PL−BL2)/(BL1−BL2)]×100. BL1, baseline latency before inflammation; BL2, baseline latency after inflammation but before drug injection; PL, latency post drug injection.
Intrathecal injection. To avoid systemic effects of drugs and target spinal mechanisms, drugs were delivered into cerebral spinal fluid (CSF) space around lumbosacral spinal cord via intrathecal (i.t.) administration. Spinal cord puncture was made with a 30G needle between the L5 and L6 level to deliver the reagents (10 μl) to the cerebral spinal fluid (Hylden and Wilcox, 1980)^5. […] In addition to spinal cord cells, intrathecal drug administration also affects DRG cells^6,7.
Intrathecal injection: DHA and EPA (Cayman Chemical, 10 μg, prepared in 1% ethanol), COX-2 inhibitor NS-398 (Sigma, 0.1, 1, and 10 μg, prepared in 1% ethanol in FIG. 1a-c or in 10% ethanol in FIG. 2c), morphine (Sigma, 10 to 500 ng, prepared in 1% ethanol in FIG. 1a-c), naloxone (Sigma, 2 μg, prepared in 1% ethanol), pertussis toxin (Tocris Bioscience, 0.2 μg, prepared in saline), chemerin (R & D Systems, 0.45 to 100 ng, prepared in 1% ethanol), TNF-α (R & D Systems, 20 ng, prepared in saline), and capsaicin (Sigma, 0.5 μg in 10 μl, prepared in 1% DMSO) were delivered. To examine whether pretreatment of RvE1 attenuated TNF-α-induced persistent hyperalgesia at 1, 3, and 24 h, RvE1 and TNF-α were mixed and injected at the same time (FIG. 3c). To examine whether pretreatment of RvE1 attenuates capsaicin-induced acute spontaneous pain, RvE1 and capsaicin were mixed and injected at the same time (FIG. 3f).

[2] = tested on: glutamate NMDA receptors (NMDARs); assay: NMDA-induced currents in dorsal horn (lamina II) neurons of spinal cord slices; assay type: cell-based, mice; settings: NMDA 50 μM; TNF-α 10 ng/ml; PD98059 1 μM, U0126 1 μM, capsazepine 10 μM
Procedure: Spinal cord slice preparation. As previously reported^39, a portion of the lumbar spinal cord (L4-L5) was removed from young mice (3-4 week old) under urethane anesthesia (1.5-2.0 g/kg, i.p.) and transverse spinal cord slices were cut (600 μm) on a vibrating microslicer. The slices were perfused with Kreb's solution (8 ml/min) for >2 h prior to experiments. Some slices were stimulated with TNF-α (10 ng/ml, 5 min), the slices were fixed with 4% paraformaldehyde for 1 h, and processed pERK immunohistochemistry using thin sections (15 μm)^13.
Patch clamp recordings in spinal slices. Whole cell patch-clamp recordings were performed in lamina II neurons in voltage clamp mode^39. After establishing the whole-cell configuration, neurons were held at the holding potentials of −70 mV for recording spontaneous excitatory postsynaptic current (sEPSC). NMDA-induced currents were recorded by bath application of NMDA (50 μM, Sigma) at the holding potential of −50 mV. Membrane currents were amplified with an Axopatch 200A amplifier (Axon Instruments) in voltage-clamp mode. pCLAMP 6 was used and Mini Analysis (Synaptosoft Inc.) software to store and analyze the data. Those cells showing >5% changes from the baseline levels were reagrded as responding ones^24.
Resolvins were also used for intraplantar injection. RvD1 or RvE1 was injected into the plantar surface of a hindapaw [20 ng, 20 μl , in 1% ethanol (Supplementary FIG. 5a, 5b) or in 10% ethanol (FIG. 2e, Supplementary FIG. 1d)]. DRG cultures were incubated with RvE1 (10 ng/ml, 0.1% ethanol in culture medium) and perfused spinal cord slices with RvE1 (1 ng/ml, in 0.01% ethanol and Kreb's solution).
Perfusion of spinal cord slices: Spinal cord slices were incubated with chemerin (100 ng/ml, in Kreb's solution), TNF-α (10 ng/ml, in Kreb's solution), capsaicin (100 nM, in 0.01% DMSO and Kreb's solution), TRPV1 antagonist capsazepine (Sigma, 10 μM, in 0.01% DMSO and Kreb's solution), pertussix toxin (0.5 μg/ml, in Kreb's solution), and MEK inhibitor PD98059 and U0126 (CalBiochem, 1 μM, in 0.01% DMSO and Kreb's solution). For pertussix toxin treatment, spinal cord slices were incubated with the toxin for 3 h before stimulation.

CC[C@@H](O)/C=C/C=C\C[C@@H](O)/C=C/C=C/C=C\[C@@H](O)CCCC(=O)O [RvE1, 5S,12R,18R-trihydroxyeicosapentaenoic acid]
effective dose range compared with morphine and NS-398, formalin 2nd phase ([1]; intrathecal, dose response curve FIG. 1c): much lower than that of either morphine or the COX-2 inhibitor NS-398 | formalin-induced pain behavior, 1st phase ([1]; preemptive intrathecal injection, RvE1 0.3 and 1.0 ng): not the 1st phase | formalin-induced pain behavior, 2nd phase ([1]; preemptive intrathecal injection, RvE1 0.3 and 1.0 ng, morphine 10 to 500 ng, NS-398 0.1, 1, and 10 μg, chemerin 0.45 to 100 ng): reduced | TNF-α-induced potentiation of NMDA currents (NMDAR activation) [2]: blocked this potentiation
